Laboratory results from PubChem BioAssay (NCI).
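Each compound was tested at five concentrations against cells in 96-well plates for 48 hours. Here, GI50 denotes the concentration required for 50% inhibition of growth. TGI: concentration producing complete growth inhibition.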

Assays:
Assay in all cases: NCI anticancer screen, dose series, 48 h
A549 NSCLC = tested on: A549 NSCLC
COLO 205 colon = tested on: COLO 205 colon
HOP-62 NSCLC = tested on: HOP-62 NSCLC
MALME-3M melanoma = tested on: MALME-3M melanoma
SF-268 CNS = tested on: SF-268 CNS
SN12C renal = tested on: SN12C renal
SNB-19 CNS = tested on: SNB-19 CNS
SNB-75 CNS = tested on: SNB-75 CNS
UACC-62 melanoma = tested on: UACC-62 melanoma
UO-31 renal = tested on: UO-31 renal

SMILES	GI50 (A549 NSCLC)	TGI (A549 NSCLC)	GI50 (COLO 205 colon)	TGI (COLO 205 colon)	GI50 (HOP-62 NSCLC)	TGI (HOP-62 NSCLC)	GI50 (MALME-3M melanoma)	TGI (MALME-3M melanoma)	GI50 (SF-268 CNS)	TGI (SF-268 CNS)	GI50 (SN12C renal)	TGI (SN12C renal)	GI50 (SNB-19 CNS)	TGI (SNB-19 CNS)	GI50 (SNB-75 CNS)	TGI (SNB-75 CNS)	GI50 (UACC-62 melanoma)	TGI (UACC-62 melanoma)	GI50 (UO-31 renal)	TGI (UO-31 renal)
Oc1c(CN2CCOCC2)cc(COCc2ccccc2)c2cccnc12	4.22 µM	64 µM	16 µM	67.2 µM	1.48 µM	> 100 µM	2.84 µM	> 100 µM	1.95 µM	> 100 µM	5.29 µM	> 100 µM	4.28 µM	> 100 µM	10.4 µM	> 100 µM	2.24 µM	8.91 µM	0.351 µM	9.36 µM
CCOC(=S)SCN1C(=O)c2ccccc2S1(=O)=O	23.9 µM	58.3 µM	2.94 µM	11.2 µM	24.6 µM	65.8 µM	1.94 µM	8.76 µM	29.5 µM	> 100 µM	21 µM	46.6 µM	28.7 µM	88.8 µM	4.68 µM	29.6 µM	20 µM	38 µM	14.3 µM	29.4 µM
O=S(=O)(O)ONC1=NCCN1	> 100 µM	> 100 µM	> 100 µM	> 100 µM	> 100 µM	> 100 µM	> 100 µM	> 100 µM	> 100 µM	> 100 µM	> 100 µM	> 100 µM	> 100 µM	> 100 µM	> 100 µM	> 100 µM	> 100 µM	> 100 µM	29.1 µM	> 100 µM
Nc1c(-c2nc3ccccc3[nH]2)sc(=S)n1-c1ccc(Cl)cc1	–	51.1 µM	–	> 100 µM	–	47.3 µM	–	> 100 µM	–	54.9 µM	–	50.1 µM	–	57.4 µM	–	47.6 µM	–	48.4 µM	–	55.7 µM
O=[As]c1ccc(C(=O)c2ccc(Oc3ccccc3)cc2)cc1 (stereo not given)	0.0465 µM	0.172 µM	0.0494 µM	0.169 µM	0.0356 µM	0.105 µM	0.068 µM	0.271 µM	0.0344 µM	0.129 µM	0.0407 µM	0.148 µM	0.0651 µM	0.187 µM	0.0366 µM	0.15 µM	0.059 µM	0.185 µM	0.0695 µM	0.208 µM
COc1ccc(C(=O)O/N=C2/CCC/C2=C\c2ccccc2)cc1	–	> 100 µM	–	> 100 µM	–	> 100 µM	–	> 100 µM	–	> 100 µM	–	> 100 µM	–	> 100 µM	–	> 92.9 µM	–	> 100 µM	–	> 100 µM
COc1ccc(/C=N/N=C(\[O-])c2ccncc2)cc1F.COc1ccc(/C=N\N=C(/[O-])c2ccncc2)cc1F.[Cu+2]	27.3 µM	> 100 µM	19.7 µM	42.2 µM	20.3 µM	41 µM	25.9 µM	> 100 µM	25.9 µM	86.3 µM	40.4 µM	> 100 µM	17.8 µM	35.7 µM	14.6 µM	28.2 µM	23.8 µM	52.8 µM	64.4 µM	> 100 µM
COC(=O)Cc1nc2ccccc2o1	–	> 100 µM	–	> 100 µM	–	> 100 µM	–	> 100 µM	–	> 100 µM	–	> 100 µM	–	> 100 µM	–	> 100 µM	–	49.3 µM	–	> 100 µM
Cc1c(C(=O)O[C@H]2[C@@H]3[C@H](C)CC[C@H]3[C@]3(C)O[C@@]2(C2CCCCC2)C[C@H]3OC(=O)CO)ccc2ccccc12	7.11 µM	13.7 µM	9.2 µM	17.5 µM	8.48 µM	15.3 µM	7.24 µM	14.5 µM	3.49 µM	11.8 µM	0.157 µM	8.36 µM	8.56 µM	15.6 µM	2.98 µM	11 µM	7.97 µM	15.1 µM	0.408 µM	7.96 µM
O=C(CCl)Nc1cc(O)c2c(c1)C(=O)c1cccc(O)c1C2=O	7.44 µM	48.5 µM	1.55 µM	3.35 µM	1.71 µM	3.38 µM	0.897 µM	2.58 µM	1.69 µM	3.9 µM	0.68 µM	1.98 µM	1.87 µM	4.15 µM	1.21 µM	3.2 µM	1.47 µM	3.84 µM	1.39 µM	2.71 µM
C=CCCC(=O)N1C=CC(=O)[C@H](O)[C@@H]1/C=C/c1ccccc1	18.2 µM	> 32.5 µM	10.9 µM	> 32.5 µM	13.3 µM	> 32.5 µM	9.61 µM	> 32.5 µM	7.03 µM	> 32.5 µM	12.7 µM	> 32.5 µM	17.2 µM	> 32.5 µM	27.4 µM	> 32.5 µM	6.27 µM	15.6 µM	4.25 µM	> 32.5 µM
